Data set [1] addresses T1, bovine carbonic anhydrase (bCA) (Bos taurus, UniProt P00921).
T1 construct: from tissue; host or cells: bovine blood hemolysate (erythrocytes are inferred)
Nature of the data set: Inhibition of esterase activity (p-nitrophenyl acetate) of purified bCA. In kind it is biochemical. The conditions noted are these: for IC50 / IC50 bCA: esterase activity method, saturated substrate concentration. Here is the method:
(§1) The human erythrocyte carbonic anhydrase isozymes hCAI and hCAII were eluted with 50 mM Na2HPO4 ‐ 1 M NaCl, pH: 6.3, and 0.1 M CH3COONa ‐ 0.5 M NaClO4, pH: 5.6, respectively (flow rate: 20 mL/h, fraction volume: 5 mL). The bovine enzyme was eluted with 0.1 M CH3COONa ‐ 0.5 M NaClO4 (pH: 5.6) buffer system. The protein elution by affinity column chromatography was monitored by absorbance measurement at 280 nm.
(§2) Carbonic anhydrase activity was also assayed by following esterase activity according to the method defined by Verpoorte et al. with slight modification. The enzyme hydrolyzes the substrate, p‐nitrophenyl acetate, to p‐nitrophenol or p‐nitrophenolate. The change in absorbance was measured spectrophotometrically at room temperature for a period of 3 min. The reaction mixture contained 0.5 mL of 0.05 M Tris–SO4 buffer (pH: 7.4), 0.75 mL of p‐NPA (3 mM), 0.1 mL of distilled water, and 0.15 mL of the enzyme solution (final volume 1.5 mL). […] All measurements were performed as triplicates. The method was used to determine the inhibitory activities of the food additives studied.
(§3) To determine the effect of all samples on bCA, hCAI, and hCAII isoenzymes esterase activity at saturated substrate concentration, activity (%) ‐ inhibitor concentration [I] graphs were plotted.

Details of data set [2]: method as in Joint FAO/WHO Expert Committee on Food Additives. The conditions noted are these: NL: not limited; ref Joint FAO/WHO Expert Committee on Food Additives; cited from earlier work.
The subject of data set [3] is hCAI. Further details: method as in PMID 27451209. The conditions noted are these: in vitro; cited from earlier work.
Data set [4] concerns the target T2, hCAI isoenzyme purified from human erythrocytes (Homo sapiens, UniProt P00915).
T2 construct: hCAI isoenzyme purified from human erythrocytes; from tissue; host or cells: human erythrocytes
Nature of the data set: Inhibition of esterase activity (p-nitrophenyl acetate) of purified hCAI; IC50, Ki, inhibition type. In kind it is biochemical. How it is done: as §1, §2, §3
Lineweaver–Burk lines were drawn for each inhibitor concentration. In the graph equation, Ki values were calculated by using Vmax=V^I max(1 + [I]/Ki) formula for semi‐competitive and Noncompetitive inhibition.

Data set [5] deals with T3, hCAII isoenzyme purified from human erythrocytes (Homo sapiens, UniProt P00918).
T3 construct: […]; from tissue; host or cells: human erythrocytes
Nature of the data set: Inhibition of esterase activity (p-nitrophenyl acetate) of purified hCAII. In kind it is biochemical. Particulars: esterase activity method, saturated substrate concentration. How it is done: as §1, §2, §3

Data set [6] has as its system glandular stomach, colon and lungs of mice. Further details: method as in PMID 20686341. The conditions noted are these: cited from earlier work.
In data set [7] the test system is hCAI. Particulars: read-out: IC50(hCAI); cited from earlier work.
Data set [8] relates to hCAII. Particulars: read-out: IC50(hCAII); cited from earlier work.
In data set [9] the test system is hCAII. The conditions noted are these: cited from earlier work.
The mark [10] stands for this setting: esterase activity method, saturated substrate concentration, read-out: IC50 hCAI.

Structures are written as SMILES. Several values for one entry are separate records, joined by “and”; a condition that tells them apart may be missing. Equal entries are not always repeated. Where two headings read alike, the source gives them in different places. Where a SMILES comes first, the peptide text is derived from it.

T1 sequence (P00921 whole entry): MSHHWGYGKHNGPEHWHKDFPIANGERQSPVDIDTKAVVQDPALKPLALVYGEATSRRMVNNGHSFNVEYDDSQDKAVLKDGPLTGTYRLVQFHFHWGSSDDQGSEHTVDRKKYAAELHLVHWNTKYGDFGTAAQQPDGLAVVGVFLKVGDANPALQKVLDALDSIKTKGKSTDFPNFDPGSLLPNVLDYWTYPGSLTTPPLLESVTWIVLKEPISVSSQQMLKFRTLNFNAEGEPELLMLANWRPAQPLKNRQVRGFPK
T2 sequence (P00915 whole entry): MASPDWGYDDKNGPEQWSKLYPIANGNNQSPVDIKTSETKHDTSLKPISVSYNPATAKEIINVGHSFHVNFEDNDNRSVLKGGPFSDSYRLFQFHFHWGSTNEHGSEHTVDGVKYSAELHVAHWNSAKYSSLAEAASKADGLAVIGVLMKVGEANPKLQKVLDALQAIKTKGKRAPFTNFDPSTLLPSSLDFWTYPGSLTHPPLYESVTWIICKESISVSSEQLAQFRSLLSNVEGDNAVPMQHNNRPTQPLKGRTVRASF

In data set [1] (at 2 mg/mL concentration), `CC1=CC(=O)NS(=O)(=O)O1` [Acesulfame K] had an inhibition at 2000 µg/mL of 13%. The same molecule yielded an IC50 in data set [1] of 2350.5 ± 0.1 µM. Besides, in [2], the “ADI (acceptable daily intake)” value is reported as 15 mg/kg.

In the case of `COc1cc(S(=O)(=O)[O-])c(C)cc1N=Nc1c(O)ccc2cc(S(=O)(=O)[O-])ccc12.[Na+].[Na+]` [Allura Red AC], the IC50 in the data set with hCAI [3] is 565 µM; in [1], 762.12 ± 0.12 µM; in data set [4] (setting [10]), 781.65 ± 0.06 µM; in data set [5], 504.04 ± 0.02 µM. The “ADI (acceptable daily intake)” value in data set [2] was 7 mg/kg. Moreover, in data set [6], the “DNA damage in in vivo comet assay” value is given as “DNA damage”.

As to `O=S(=O)([O-])c1ccc2c(N=Nc3ccc(S(=O)(=O)[O-])c4ccccc34)c(O)c(S(=O)(=O)[O-])cc2c1.[Na+].[Na+].[Na+]` [Amaranth], the concentration for half-maximal inhibition (IC50) in data set [1] is 296.06 ± 0.06 µM; in data set [4] (setting [10]) it was 496.04 ± 0.04 µM; in [5], 603.11 ± 0.11 µM. The “ADI (acceptable daily intake)” value in [2] was 0.5 mg/kg.

Regarding `O=C1O[C@H]([C@@H](O)CO)C(O)=C1O` [Ascorbic Acid, Ascorbic acid], the IC50 in [1] was 993.67 ± 0.03 µM; in [4] (setting [10]) it was 1834.1 ± 0.1 µM; in data set [5], 2160.1 ± 0.07 µM.

In the case of `COC(=O)[C@H](Cc1ccccc1)NC(=O)[C@@H](N)CC(=O)O` [Aspartame] (HELM PEPTIDE1{D.F.[CO[*:1]]}$$$$V2.0), the “IC50 bCA” value in [1] is “inactive”; in data set [1] (listed as aspartame), “no effect”. Besides, the “ADI (acceptable daily intake)” value in data set [2] was 40 mg/kg. Besides, the IC50 was 2816.9 ± 0.03 µM in data set [4] (setting [10]) and 2935.8 ± 0.02 µM in data set [5].

Consider `O=C(O)c1ccccc1` [Benzoic Acid, Benzoic acid], for which the IC50 in data set [1] was 1850.7 ± 0.05 µM; in data set [4] (setting [10]), 2784 ± 0.06 µM; in data set [5], 2988.8 ± 0.06 µM. Further, in data set [2], the “ADI (acceptable daily intake)” value was 5 mg/kg.

As for `CC(=O)Nc1ccc(S(=O)(=O)[O-])c2cc(S(=O)(=O)[O-])c(N=Nc3ccc(N=Nc4ccc(S(=O)(=O)[O-])cc4)c4ccc(S(=O)(=O)[O-])cc34)c(O)c12.[Na+].[Na+].[Na+].[Na+]` [Brilliant Black BN], the IC50 was 153.32 ± 0.04 µM in [1], 91.14 ± 0.09 µM in data set [4] (setting [10]) and 502.45 ± 0.03 µM in data set [5]. Also, the “ADI (acceptable daily intake)” value in data set [2] is 1 mg/kg.

Regarding `CCN(Cc1cccc(S(=O)(=O)[O-])c1)c1ccc(C(=C2C=CC(=[N+](CC)Cc3cccc(S(=O)(=O)[O-])c3)C=C2)c2ccccc2S(=O)(=O)[O-])cc1.[Na+].[Na+]` [Brilliant Blue FCF], the half-maximal inhibitory concentration (IC50) stood at 136.26 ± 0.04 µM in data set [1], 208.04 ± 0.03 µM in [4] (setting [10]) and 364.3 ± 0.09 µM in [5]. Besides, the “ADI (acceptable daily intake)” value in [2] was 6 mg/kg.

With `Cc1cc(C(C)(C)C)c(O)c(C(C)(C)C)c1` [Butylated Hydroxytoluene (BHT), Butylated hydroxytoluene (BHT)], the concentration for half-maximal inhibition (IC50) in data set [1] stood at 512.85 ± 0.05 µM; in data set [4] (setting [10]) it was 462.89 ± 0.1 µM; in data set [5] it was 104.29 ± 0.09 µM. The “ADI (acceptable daily intake)” value in [2] is 0.3 mg/kg.

Turning to `Cc1c(C(=O)O)c(O)cc2c1C(=O)c1c(O)c([C@@H]3O[C@H](CO)[C@@H](O)[C@H](O)[C@H]3O)c(O)c(O)c1C2=O` [Carminic Acid, Carminic acid], the 50% inhibitory concentration (IC50) in data set [1] turned out to be 586.92 ± 0.01 µM; in data set [4] (setting [10]) it was 684 µM; in [5] it was 581.07 ± 0.03 µM. Besides, the “ADI (acceptable daily intake)” value in data set [2] was 2.5 mg/kg.

On to `O=C(O)CC(O)(CC(=O)O)C(=O)O` [Citric Acid], for which the values for the IC50 in [1], in data set [4] (setting [10]) and in data set [5] were 616.9 ± 0.1 µM, 1799.4 ± 0.03 µM and 1241.9 ± 0.07 µM, respectively.

For the molecule `COc1cc(/C=C/C(=O)CC(=O)/C=C/c2ccc(O)c(OC)c2)ccc1O` [Curcumin], the values for the half-maximal inhibitory concentration (IC50) with hCAI [7] and in the data set on hCAII [8] were 5.63 µM and 4.81 µM, respectively.

Consider `O=C([O-])c1ccccc1-c1c2cc(I)c(=O)c(I)c-2oc2c(I)c([O-])c(I)cc12.[Na+].[Na+]` [Erythrosine B], for which the 50% inhibitory concentration (IC50) was 11 µM and 10.8 µM in data set [1]; 19 µM in data set [4] (Table 3, read-out: IC50 (hCAI esterase activity)); 19.37 ± 0.04 µM in data set [4] (setting [10]); 5 µM and 5.22 µM in data set [5]. The “ADI (acceptable daily intake)” value in data set [2] is reported as 0.1 mg/kg. Moreover, in [4] (Lineweaver–Burk), the Type of inhibition entry was “Noncompetitive”. Further, the inhibitory constant (Ki) was 2.9 µM in data set [4] ([I] 0.015 mM, Lineweaver–Burk, read-out: Ki values); 1.7 µM in data set [4] ([I] 0.019 mM, Lineweaver–Burk, read-out: Ki values); 3.9 µM in [4] ([I] 0.023 mM, Lineweaver–Burk, read-out: Ki values); 2.8 µM in [4] (three inhibitor concentrations, five substrate concentrations (0.15–0.75 mM), read-out: Average Ki).

With `O=C1/C(=C2\Nc3ccc(S(=O)(=O)[O-])cc3C2=O)Nc2ccc(S(=O)(=O)[O-])cc21.[Na+].[Na+]` [Indigo Carmine], the IC50 turned out to be 141.59 ± 0.07 µM in data set [1], 1018.6 ± 0.04 µM in data set [4] (setting [10]) and 242.03 ± 0.03 µM in data set [5]. In [2], the “ADI (acceptable daily intake)” value is recorded as 5 mg/kg.

With `CCN(CC)c1ccc(C(=C2C=CC(=[N+](CC)CC)C=C2)c2cc(O)c(S(=O)(=O)[O-])cc2S(=O)(=O)[O-])cc1.CCN(CC)c1ccc(C(=C2C=CC(=[N+](CC)CC)C=C2)c2cc(O)c(S(=O)(=O)[O-])cc2S(=O)(=O)[O-])cc1.[Ca+2]` [Patent Blue V], the values for the IC50 in data set [1], in data set [4] (setting [10]) and in [5] were 267.46 ± 0.09 µM, 316.98 ± 0.02 µM and 396.74 ± 0.03 µM, respectively. For the same molecule, the “ADI (acceptable daily intake)” value in [2] is listed as 5 mg/kg.

For the molecule `O=S(=O)([O-])c1cc(S(=O)(=O)[O-])c2c(N=Nc3ccc(S(=O)(=O)[O-])c4ccccc34)c(O)ccc2c1.[Na+].[Na+].[Na+]` [Ponceau 4R, Ponceau 4 R], the IC50 in data set [1] amounted to 239.84 ± 0.04 µM; in data set [4] (setting [10]), 678.27 ± 0.03 µM; in [5] it was 617.09 ± 0.01 µM. The “ADI (acceptable daily intake)” value in data set [2] is reported as 0.7 mg/kg.

As for `O=C1NS(=O)(=O)c2ccccc21` [Saccharin], the “ADI (acceptable daily intake)” value in data set [2] was 5 mg/kg. The IC50 in data set [4] (setting [10]) is 2049.1 ± 0.1 µM. For the same molecule, the “inhibition against hCAII” value in the data set with hCAII [9] was “low micromolar inhibition”.

On to `C/C=C/C=C/C(=O)O` [Sorbic Acid, Sorbic acid], for which the IC50 in data set [1] amounted to 1801.4 ± 0.04 µM; in data set [4] (setting [10]), 4566.2 ± 0.06 µM; in data set [5] it was 3475.1 ± 0.1 µM. Further, in [2], the “ADI (acceptable daily intake)” value was 25 mg/kg.

On to `O=S(=O)([O-])c1ccc(N=Nc2c(O)ccc3cc(S(=O)(=O)[O-])ccc23)cc1.[Na+].[Na+]` [Sunset Yellow FCF], for which the IC50 was found to be 680.82 ± 0.05 µM in [1], 350.05 ± 0.03 µM in [4] (setting [10]) and 488.63 ± 0.07 µM in [5]. Moreover, the “ADI (acceptable daily intake)” value in [2] was 4 mg/kg.

In the case of `O=C([O-])C1=NN(c2ccc(S(=O)(=O)[O-])cc2)C(=O)C1N=Nc1ccc(S(=O)(=O)[O-])cc1.[Na+].[Na+].[Na+]` (centres unmarked) [Tartrazine], the IC50 turned out to be 659.67 ± 0.07 µM in data set [1], 652.25 ± 0.05 µM in data set [4] (setting [10]) and 621.83 ± 0.05 µM in data set [5]. Besides, the “ADI (acceptable daily intake)” value in data set [2] is listed as 7.5 mg/kg.

Usually inhibition stands for the share of the control response that was lost under treatment. One may read the IC50 as the concentration that inhibits the measured activity by half. Broadly, the Ki is a dissociation constant, usually derived from enzyme kinetics or from competition with a known ligand.

Source of the values: paper PMC12361874, “Common Food Additives Inhibit Carbonic Anhydrase Activity” (Journal of Biochemical and Molecular Toxicology, 2025).
